Entries after “also recorded” stand apart in the source; their conditions may differ. Read-outs that look alike come from different tables or passages of the source.
Experiments:
[1] = molecular target: T1, PYL2 receptor-HAB1 complex (Arabidopsis thaliana, UniProt O80992); assay: HAB1 phosphatase activity assay (SnRK2.6 phosphorylated polypeptide as substrate); type: biochemical; conditions: FIG. 1a-1g; 100 nM HAB1, 500 nM PYL2
T1 construct: made in house; host or cells: E. coli BL21 (DE3)
T1 sequence (O80992 14-188): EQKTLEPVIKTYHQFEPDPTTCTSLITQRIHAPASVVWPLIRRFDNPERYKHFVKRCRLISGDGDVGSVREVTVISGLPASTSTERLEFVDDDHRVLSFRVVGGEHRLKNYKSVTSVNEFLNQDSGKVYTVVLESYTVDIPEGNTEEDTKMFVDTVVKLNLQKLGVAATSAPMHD
T1 sequence (Q9CAJ0 172-511 partner limits assumed): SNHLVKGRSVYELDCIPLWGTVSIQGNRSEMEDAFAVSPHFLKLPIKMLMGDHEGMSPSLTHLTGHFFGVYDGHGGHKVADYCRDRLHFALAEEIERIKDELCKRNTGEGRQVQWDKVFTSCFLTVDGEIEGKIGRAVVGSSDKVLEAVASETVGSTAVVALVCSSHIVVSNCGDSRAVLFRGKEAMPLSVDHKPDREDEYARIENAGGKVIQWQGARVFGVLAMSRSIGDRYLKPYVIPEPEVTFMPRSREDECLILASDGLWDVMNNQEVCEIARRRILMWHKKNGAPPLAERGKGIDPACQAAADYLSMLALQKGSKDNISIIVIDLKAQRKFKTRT
Procedure: 50 mM imidazole, pH 7.2, 5 mM MgCl2, 0.1% β-mercaptoethanol, 0.5 μg·ml^−1 BSA, 100 nM HAB1 protein with a Biotin tag sequence, 500 nM PYL2 receptor protein with 6×His-SUMO dual tag sequence and the corresponding concentration of (+)-ABA/0224/0304/0706/0708/0713/0715/1028c/0428/1022B/NC0F4 were contained in the reaction system. The reaction system was incubated at room temperature for 30 minutes, followed by a further reaction for 30 minutes after adding an 11-amino acid phosphorylated polypeptide as a substrate. The phosphorylated polypeptide is amino acid 170-180 of SnRK2.6 protein kinase, wherein phosphorylated serine at position 175 (with a sequence of HSQPKpSTVGTP, purchased from Kingsley Company) was a known HAB1 dephosphorylation target site. After 30 minutes, chromogenic reagent (purchased from BioVision) was added and the absorbance at 650 nm was read on a microplate reader (Molecular Devices).

[2] = molecular target: T2, PYL2 receptor-HAB1 protein phosphatase complex (Arabidopsis thaliana, UniProt O80992); assay: AlphaScreen assay, PYL2 receptor binding to HAB1; type: biochemical; conditions: fraction of the EC50 of ABA; FIG. 2c, 2e-2g
T2 construct: made in house; host or cells: E. coli BL21 (DE3)
T2 sequence (O80992 14-188): T1 sequence (O80992 14-188)
T2 sequence (Q9CAJ0 172-511 partner limits assumed): T1 sequence (Q9CAJ0 172-511 partner limits assumed)
Procedure: (§1) The AlphaScreen kit (available from Perkin Elmer) was used, and the method was as follows: a 10× buffer (50 mM MOPS, pH 7.4, 50 mM NaF, 50 mM CHAPS, 0.1 mg/ml bovine serum albumin) diluted at 1:10, each of 100 nM HAB1 with Biotin tag sequence and PYR1/PYL1/PYL2/PYL7/GmPYL6/OsPYL2 protein with dual tags of 6×His and SUMO sequences, corresponding concentrations of (+)-ABA/0224/0304/0706/0708/0713/0715/0428/NC0F4, and 5 μg/ml donor beads and acceptor beads (available from Perkin Elmer) were contained in 150 μl of experimental system. After incubating for 1.5 hours at room temperature in the dark, it was placed into an Envision Plate Reader (available from Perkin Elmer) under the programmed AlphaScreen procedure for readings.
(§2) AlphaScreen technology was used to test the ability of the compounds of the present invention to promote PYL receptor binding to PP2C protein phosphatase (HAB1).

[3] = molecular target: T2, PYL2 receptor-HAB1 protein phosphatase complex; assay: AlphaScreen assay: promotion of PYL2 receptor binding to PP2C protein phosphatase HAB1; conditions: 6×His-SUMO-tagged PYL2 (aa 14-188), Biotin-tagged HAB1 (aa 172-511), 100 nM each, pH 7.4, 1.5 h room temperature, read-out: EC50
Source text: (§3) The construction method of recombinant plasmids for the Arabidopsis thaliana genes PYL1 (amino acid sequence 36-211), PYL2 (amino acid sequence 14-188) with dual tags of 6×His and SUMO sequence and the Arabidopsis thaliana gene HAB1 (amino acid sequence 172-511) with the Biotin tag sequence is described in detail in “A gate-latch-lock mechanism for hormone signaling by abscisic acid receptors” (Nature, Vol 462, 2009). The construction method of recombinant plasmids for PYR1 and PYL7 (whole gene coding sequence) and Soybean GmPYL6 and rice OsPYL2 with dual tags of 6×His and SUMO sequence is the same as that for Arabidopsis PYL2.
(§4) The above recombinant plasmid is transformed into competent cell of E. coli BL21 (DE3) (purchased from NEB company), and inoculated into 200 ml of LB liquid medium containing Amp resistance (purchased from OXOID company) and cultured overnight at 37° C. at 200 rpm; and inoculated into 2 L of LB liquid medium containing Amp resistance at a ratio of 1:50-1:100 for an extended culture, and cultured at 37° C., 200 rpm for 3-4 hours, and at a low temperature of 16° C. until OD600 is about 0.8-1.0. Recombinant plasmids for PYR1/PYL1/PYL2/PYL7/GmPYL6/OsPYL2 with dual tags of 6×His and SUMO sequence were induced overnight with 100 μM of IPTG while HAB1 recombinant plasmid with the Biotin tag sequence was induced simultaneously with 100 μM of IPTG and 40 μM of biotin.
(§5) After 16 hours of induction, the bacterial solution was centrifuged at 4000 rpm for 20 minutes at 4° C. in a low-speed high-capacity centrifuge, and the bacteria cells were collected. Bacteria cells were resuspended in 50 ml of extraction buffer (containing 20 mM Tris, pH 8.0, 200 mM NaCl and 10% (v/v) glycerol) for per 2 L of bacterial solution and then subjected to pressure-breaking at […] and 4° C. for 3-5 times. The broken cells were subjected to ultracentrifugation, centrifuged at 16000 rpm for 30 minutes, and this process was repeated twice. The supernatant was collected and subjected to an affinity chromatography column.
(§6) For PYR/PYL proteins with dual tags of 6×His and SUMO sequences, 50 ml of affinity chromatography Ni column (50 ml Ni-NTA column, available from GE) was used. Firstly, the column was equilibrated with 600 ml of 10% buffer B (containing 20 mM Tris, PH 8.0, 200 mM NaCl, 500 mM imidazole and 10% glycerol), and then eluted with 200 ml of 50% buffer B and finally eluted with 100 ml of 100% buffer B. Proteins for crystal analysis were mixed with ulp1 enzyme at a molar ratio of 1000:1 for enzymatic dialysis overnight. The digested proteins were subjected to affinity chromatography on a Ni column once more. The collected solution was subjected to a HiLoad 26/60 Superdex200 gel filtration column (commercially available from GE) and eluted with an elution solution (containing 25 mM Tris, pH 8.0, 200 mM ammonium acetate, 1 mM dithiotreitol and 1 mM EDTA) to further separate and purify the protein.
For a HAB1 protein with a Biotin tag sequence, it was subjected to a 50 ml MBP affinity column (available from GE). The column was firstly equilibrated with 600 ml of 10% buffer C (containing 20 mM Tris, pH 8.0, 200 mM NaCl, 10 mM Maltose and 10% Glycerol), and eluted with 200 ml of 50% buffer C and finally eluted with 100 ml of 100% buffer C. The collection solution was subjected to a HiLoad 26/60 Superdex200 gel filtration column and eluted with an elution solution (containing 20 mM Tris, pH 8.0, 200 mM NaCl and 10% Glycerol) to further separate and purify the protein. […]

[4] = test system: ABA-induced environmental stress-related gene (COR15a, COR47, RAB18 and RD29b); assay: Gene expression analysis (fluorescence quantitative PCR); type: in vivo, Arabidopsis thaliana (Col-0); conditions: 10 μM, 6 hours, 10-day-aged seedlings; FIG. 10
Procedure: The whole plant or leaves were taken, and RNA extraction was carried out by using conventional methods. After reverse transcription, the fluorescence quantitative PCR was carried out. Three biological samples were taken for each treatment which was performed twice. The ACT7 gene was used as a reference gene.

[5] = molecular target: T3, PYR1 receptor-HAB1 protein phosphatase complex (Arabidopsis thaliana, UniProt O49686); assay: AlphaScreen assay: promotion of PYR1 receptor binding to PP2C protein phosphatase HAB1; conditions: FIG. 2h; 6×His-SUMO-tagged PYR1 (whole coding sequence), Biotin-tagged HAB1 (aa 172-511), 100 nM each; pH 7.4; 1.5 h room temperature; read-out: EC50
T3 construct: made in house; host or cells: E. coli BL21 (DE3)
T3 sequence (O49686 1-191): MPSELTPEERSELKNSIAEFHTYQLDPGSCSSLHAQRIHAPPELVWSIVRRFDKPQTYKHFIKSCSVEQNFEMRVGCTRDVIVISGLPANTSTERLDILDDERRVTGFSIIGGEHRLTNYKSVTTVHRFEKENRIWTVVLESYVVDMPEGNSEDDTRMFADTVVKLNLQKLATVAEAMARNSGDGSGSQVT
T3 sequence (Q9CAJ0 172-511 partner limits assumed): T1 sequence (Q9CAJ0 172-511 partner limits assumed)
Source text: as §3, §4, §5, §6
For a HAB1 protein with a Biotin tag sequence, it was subjected to a 50 ml MBP affinity column (available from GE). The column was firstly equilibrated with 600 ml of 10% buffer C (containing 20 mM Tris, pH 8.0, 200 mM NaCl, 10 mM Maltose and 10% Glycerol), and eluted with 200 ml of 50% buffer C and finally eluted with 100 ml of 100% buffer C. […]

[6] = molecular target: T3, PYR1 receptor-HAB1 protein phosphatase complex; assay: AlphaScreen assay, PYR1 receptor binding to HAB1; type: biochemical; conditions: fraction of the EC50 of ABA; FIG. 2a, 2h
Procedure: as §1, §2

Compound | inhibition of HAB1 protein phosphatase activity by promoting binding between PYL2 receptor and HAB1 [1] | EC50 value with PYL2 receptor-HAB1 complex as fraction of that of ABA [2] | EC50 ([3]; FIG. 2e) [nM] | EC50 ([3]; FIG. 2g) [nM] | expression level of COR15a, COR47, RAB18 and RD29b [4] | EC50 [5] [nM] | EC50 value with PYR1 receptor-HAB1 complex as fraction of that of ABA [6]
Cc1c(F)c(F)c(CS(=O)(=O)Nc2ccc3c(c2)C(C)OC(=O)N3C(C)C)c(F)c1F (stereo not drawn) [Compound 0708] | inhibiting the activity of protein phosphatase HAB1; also recorded: inhibiting the dephosphorylation effect of HAB1 on SnRK2.6 phosphorylated polypeptide | ⅕-⅛ | 136 |  |  |  | 
Cc1c(F)c(F)c(CS(=O)(=O)Nc2ccc3c(c2)C(C)OC(=O)N3CC(C)C)c(F)c1F (stereo not drawn) [Compound 0713] | inhibiting the activity of protein phosphatase HAB1; also recorded: inhibiting the dephosphorylation effect of HAB1 on SnRK2.6 phosphorylated polypeptide | ⅕-⅛ | 181 |  |  |  | 
CCCn1c(=O)ccc2cc(NS(=O)(=O)Cc3ccc(C)cc3)ccc21 [Compound 1022B] | inhibiting the activity of protein phosphatase HAB1; also recorded: inhibiting the dephosphorylation effect of HAB1 on SnRK2.6 phosphorylated polypeptide | one order of magnitude lower than that of ABA |  | 180 | all higher than those of ABA; also recorded: significantly increased |  | 
CCCN1C(=O)NC(C)c2cc(NS(=O)(=O)Cc3c(F)c(F)c(C)c(F)c3F)ccc21 (stereo not drawn) [Compound 1028c] | inhibiting the activity of protein phosphatase HAB1; also recorded: inhibiting the dephosphorylation effect of HAB1 on SnRK2.6 phosphorylated polypeptide |  |  |  |  |  | 
CCCN1C(=O)NCc2cc(NS(=O)(=O)Cc3c(F)c(F)c(C)c(F)c3F)ccc21 [Compound NC0F4] | inhibiting the activity of protein phosphatase HAB1; also recorded: inhibiting the dephosphorylation effect of HAB1 on SnRK2.6 phosphorylated polypeptide | better PYL2 receptor affinity over ABA |  |  |  | 373 | about 1/11
